Here are results for one molecule from patent US20020022826A1, “Burst electrode” (priority 2000, published 2002).

For the data set the following is noted: bare metal electrodes, nitrogen atmosphere.

From the text: Using stainless steel electrodes in aqueous NaPSS electrolyte, conditions were developed for the reproducible synthesis, loading, and release of bioactive cations from PPy/PSS films. After PPy/PSS film preparation, the polymer-modified electrodes were removed from the electrolyte, washed with water, and their redox properties studied by cyclic voltammetry (CV).

As to `NCCc1ccc(O)c(O)c1` [Dopamine, dopamine], the “potential at which dopamine oxidizes” value is listed as “+0.6 V vs. Ag/AgCl”.
